Data published in patent publication US8058228B2, “Leptin peptide antagonists” (Boston Biomedical Research Institute, priority 2004, dated 2011).

Tested on: OB-R
Assay: Competitive binding of 125I-human leptin to OB-R in rabbit endometrial cell lysates
Method: ^125I-human leptin served as ligand and LPA-2 and LPA-2Sc as competitors for the binding to OB-R in cellular extracts. All compounds were diluted in assay buffer (50 mM Tris and 100 mM NaCl, pH 8.5) to promote proper re-folding. Each assay tube contained 50 μl of cellular lysate (100 μg protein from 10^6 cells cultured for two days in basal medium), 50 μl of ^125I-human leptin (100.000 cpm), and 50 μl of LPAs (providing 10^−5-10^−14 M/tube). The tubes were incubated for 24 h at room temperature. Then, 250 μl of 1% BSA (w/v) and 500 μl of 20% polyethylene glycol (w/v) in PBS were added and the tubes were incubated for an additional 12-h period at 4° C. The tubes were centrifuged at 12.000 g for 15 min at 4° C. After careful aspiration of supernatant and complete drying of the tube-walls with filter paper, ^125I-human leptin binding in the precipitates was measured (Beckman 5000, counter). The binding of ^125I-leptin to OB-R in absence of LPAs was set at 100%, and LPA competitive binding values were expressed as percentages of total cpm. Affinity binding constants for LPAs were calculated from the competition curves.

In the case of “SRNVIQISNDLENLRDLLHVLAFSKS [LPA-2, 26 amino acid peptide, residues 70-95 of helix III of the human leptin molecule; leptin peptide antagonist]”, the “competition with 125I-leptin for binding to OB-R” value (cellular lysates of rabbit endometrial cells) is reported as “displaced” and the Ki (competition with 125I-leptin, OB-R expressed by rabbit endometrial cells (rEEC and rESC), protein extracts) is reported as about 0.06 nM.
